{
  "source": "patent US6967102B1",
  "about": "“Nitric oxide manipulation of muscle satellite cell activation” (University of Manitoba, priority 1999, dated 2005)",
  "key": {"[1]": {"test": "Muscle weight to body weight (edema) and haemorrhage after crush injury, normal mice", "type": "in vivo, normal mice (C57BL/6)", "conditions": "ip treatment 30 min before crush; 0–30 min after injury"}, "[2]": {"test_system": "satellite cells", "test": "Histology and immunostaining (m-cadherin, c-met, HGF/SF) of satellite cells 0 and 10 min after crush", "type": "in vivo, normal mice", "method": "A separate experiment was conducted to study the immediate effects of injury on muscle and satellite cell histology. […] Muscles were bisected longitudinally, and half of each muscle was frozen in OCT. for cryosectioning. Sections were stained with H&E or immunostained using primary antibodies to c-met (1:400), HGF/SF (1:1000, R&D Systems) or developmental myosin heavy chain ([…], 1:250, Novocastra Laboratories) as reported ([…] et al. (1996) Exp. Cell Res. 22: 214-222; Tatsumi et al. (1998) Dev. Biol. 194: 114-128) or against m-cadherin (1:50, Santa Cruz). […] Sections and cultures were viewed on an Olympus microscope equipped with epifluorescence and phase contrast optics. […] In the case of muscle regenerating from crush injury, observations (without knowledge of treatment group) were made in pre-set fields of muscle from the central crush region, the adjacent regenerating region and the surviving region as reported (McIntosh et al. (1994) Muscle Nerve 17: 444-453). Representative photographs of muscle fibers and satellite cells were taken on over 700 frames of ASA 400 Fuji […] slide film. Where stated, the number of satellite cells observed in each category, group or condition was estimated from photographed slides rather than from direct counts made during observations under oil immersion. Selected slides were scanned (Olympus Film Scanner ES-10, Olympus Optical Co., Tokyo), formatted into plates with little or no enlargement and printed (Freehand 8.0, Macromedia Inc.)."}, "[3]": {"test_system": "satellite cells", "test": "Satellite cell morphometry from electron micrographs 0 and 10 min after crush injury", "type": "in vivo, mice", "conditions": "L-NAME pretreatment", "text": "Measurements of cell area (size increases in activated cells), nucleus-to-cytoplasm ratio (a measure that decreases with activation), and cytoplasmic density (a measure that decreases in activation with the increase in cell size, despite the hypertrophy of cytoplasmic organelles) were made from electron micrographs without knowledge of their source. Two investigators had to agree on the satellite cell identification before cells were included in the study, with the stipulation that cell profiles had complete nuclei and cell membrane visible in a photograph or montage (all photographs taken at identical magnification of 10,000×) Satellite cells originated from the central crush-injured region of muscles collected from each mouse (n=4). Cytoplasmic density was determined as [the integrated cell density minus the integrated nuclear density] divided by [cell area minus nuclear area]. A computer was used to scan micrograph negatives, and digital images were analyzed using the program NIH Image for morphometry."}, "[4]": {"test_system": "regenerating muscle", "test": "Muscle regeneration 6 days after crush injury, normal mice", "type": "in vivo", "method": "The time course of treatment effects was determined at two intervals; during the early response 0, 5, 10 and 30 min after injury, and over the longer term after 6 days recovery. Short term experiments were repeated at least twice. The longer term animals were maintained either on plain drinking water or water containing fresh L-NAME at 12.5 mg/100 ml (30 mg/kg/day), based on an intake of 6–7 ml/day/mouse (McIntosh et al., 1994. 17:444–453). In the longer term repair studies, there were 4 normal mice in each of saline- and L-NAME-treated groups. An additional 2 normal and 2 mdx mice were injected once before injury with L-NAME and given plain water for 6 days.\nIn the longer term study of NOS inhibition during repair, saline and L-NAME-treated normal mice recovered for 6 days. Two mice per group were injected 2 hr before sacrifice with BrdU (i.p., 1.6 mg in 0.4 ml saline) and sections were immunostained using anti-BrdU antibodies as above.\nSections and cultures were viewed on an Olympus microscope equipped with epifluorescence and phase contrast optics. Observations were based on systematic viewing of 2–4 longitudinal sections per muscle (separated by […]). In the case of muscle regenerating from crush injury, observations (without knowledge of treatment group) were made in pre-set fields of muscle from the central crush region, the adjacent regenerating region and the surviving region as reported (McIntosh et al. (1994) Muscle Nerve 17: 444–453). Representative photographs of muscle fibers and satellite cells were taken on over 700 frames of ASA 400 Fuji Sensia slide film. Where stated, the number of satellite cells observed in each category, group or condition was estimated from photographed slides rather than from direct counts made during observations under oil immersion. Selected slides were scanned (Olympus Film Scanner ES-10, Olympus Optical Co., Tokyo), formatted into plates with little or no enlargement and printed (Freehand 8.0, Macromedia Inc.)."}},
  "note": "Entries after “also recorded” stand apart in the source; their conditions may differ.",
  "data": [
    {"smiles": "COC(=O)[C@@H](N)CCCNC(=N)N[N+](=O)[O-]", "note": "[L-NAME, Nω-nitro-L-arginine methyl ester]", "values": [
      {"measurement": "muscle weight profile (RTA relative to LTA; muscle weight as proportion of body weight)", "setting": "[1]", "result": "RTA weight increased only at 10 min. relative to LTA"},
      {"measurement": "normal rapid changes in satellite cell size and position", "setting": "[2]; L-NAME treatment 30 min before crush", "result": "consistently delayed and restricted"},
      {"measurement": "satellite cells thin and attenuated in both RTA and LTA", "setting": "[2]; L-NAME-treated mice, 0 min, more than 70 satellite cells identified", "result": 85, "unit": "%"},
      {"measurement": "satellite cells with c-met and HGF/SF co-localized", "setting": "[2]; L-NAME-treated mice, 10 min after injury", "result": "at least 70%"},
      {"measurement": "cell area", "setting": "[3]; 0 minutes post-crush, n = 8", "result": "9.0 ± 1.6", "unit": "arbitrary units"},
      {"measurement": "cytoplasmic density", "setting": "[3]; 0 minutes post-crush, n = 8", "result": "91.7 ± 5.8", "unit": "arbitrary units"},
      {"measurement": "nucleus:cytoplasm ratio", "setting": "[3]; 0 minutes post-crush, n = 8", "result": "70.2 ± 1.7", "unit": "%"},
      {"measurement": "satellite cell activation state by morphologic criteria", "setting": "[3]; 0–10 minutes post-crush", "result": "maintained quiescence over 10 minutes"},
      {"measurement": "cell area", "setting": "[3]; 10 minutes post-crush, n = 3", "result": "6.3 ± 1.1", "unit": "arbitrary units"},
      {"measurement": "cytoplasmic density", "setting": "[3]; 10 minutes post-crush, n = 3", "result": "66.2 ± 2.1", "unit": "arbitrary units"},
      {"measurement": "nucleus:cytoplasm ratio", "setting": "[3]; 10 minutes post-crush, n = 3", "result": "52.0 ± 8.7", "unit": "%"},
      {"measurement": "muscle regeneration", "setting": "[4]; L-NAME in drinking water (30 mg/kg/day) over 6 days of repair, n=4", "result": "muscle regeneration was reduced; also recorded: reduces normal muscle regeneration"},
      {"measurement": "density of myotubes per field vs saline-treated mice", "setting": "[4]; L-NAME over 6 days of repair", "result": "much lower density per field"},
      {"measurement": "branched myotubes", "setting": "[4]; longer term L-NAME exposure of regenerating mdx and normal muscle in vivo", "result": "high prevalence of branched myotubes"},
      {"measurement": "myotubes appearing as incompletely fused blocks of cells", "setting": "[4]; single injection of L-NAME before injury, 6 days, estimated", "result": "5–10%"},
      {"measurement": "muscle regeneration after 6 days", "setting": "[4]; single injection of L-NAME before injury, n=2", "result": "subtle effects on muscle regeneration"}
    ]}
  ]
}
